Results on four compounds are retold here after patent US20250351832A1, “PHYTOCHEMICALS AS BIOPESTICIDES AND BIOSTIMULANTS” (KAY BEE BIO ORGANICS PVT. LTD., priority 2024, published 2025).

The structures appear in SMILES notation. Where two headings read alike, the source gives them in different places.

The subject of one series is Tomato thrips. In words: In vitro bio-efficacy, Tomato thrips (Ex. 57).
For series [1], the system named is Cotton Bacterial Leaf Blight (Xanthomonas citri pv. Malvacearum). In words: Field trial, cotton bacterial leaf blight (Ex. 96). The settings on record: dose 500 PPM.
The test system of series [2] is Rice Bacterial Blight (BLB) (Xanthomonas oryzae pv. Oryzae). The class given is in vivo. The settings on record: dose 500 PPM.
The test system of series [3] is Potato Bacterial Blight (BLB) (Ralstonia solanacearum). The class given is in vivo. Conditions: dose 500 PPM.
Series [4] concerns Mealy Bug. In words: Green house effect on mealy bugs, cotton plants (Ex. 24). The settings on record: in vivo.
The subject of series [5] is Aphid.
The subject of series [6] is Spodoptera litura. The series can be described thus: Controlled conditions, Spodoptera litura on cabbage plants (Ex. 26). The settings on record: in vivo.
Series [7] deals with Mite. The settings on record: mite on okra plants, green house; dose 1 ml/gm/lit. spray; 48 hrs after application.
Another series deals with tomato seedlings. In words: Response of tomato plants, greenhouse growth (Ex. 30). The class given is in vivo.
Series [8] concerns Aphid. Conditions: 48 h, 1 mL or g/L.
The subject of series [9] is Helicoverpa armigera. Conditions: Helicoverpa armigera on okra fruits, dose 1 ml/gm/lit., 72 Hrs.
The next series deals with Alternaria alternata. In words: In vitro poisoned food technique against fungus (Ex. 20). The class given is cell-based. The settings on record: […].
Series [10] relates to Thrips. Conditions: 48 h, 1 mL or g/L.
The subject of series [11] is Spodoptera litura. Conditions: 72 h, 1 mL or g/L.
The next series has as its system chili seedlings. The series can be described thus: Response of chili plants, greenhouse growth (Ex. 31). The class given is in vivo.
The test system of series [12] is Mite. The series can be described thus: Green house effect on mite, okra plants (Ex. 23). Conditions: in vivo.
Series [13] concerns Thrips. Conditions: 48 h.
For series [14], the system named is Helicoverpa armigera. Conditions: Helicoverpa armigera 3rd instar on chickpea plants, dose 1 ml/gm/lit. spray.
Series [15] has as its system Thrips. The series can be described thus: whole plant or invertebrate. The settings on record: in Gossypium hirsutum, 48 h.
For series [16], the system named is Spodoptera litura. The series can be described thus: whole plant or invertebrate. The settings on record: 72 h.
Series [17] concerns Mite. The settings on record: Dose 1 ml/gm/lit.; 48 hrs.
Series [18] deals with Aphid. The series can be described thus: whole plant or invertebrate. The settings on record: 48 h.
The test system of series [19] is Mealy Bug. In words: In vitro bio-efficacy against mealy bug (Ex. 16). The settings on record: in vivo.
For series [20] the following is noted: cited from earlier work.
Series [21] has as its system Spodoptera litura. The settings on record: Spodoptera litura 3rd instar on cabbage plants; dose 1 ml/gm/lit. spray; 72 hrs after application.
Series [22] relates to Thrips. The series can be described thus: Greenhouse effect on thrips, cotton plants (Ex. 27). Conditions: in vivo.
Where [23] appears, read: tomato seedlings, 10th day, dose 1 ml/gm/lit.
Where [24] appears, read: chili seedlings, dose 1 ml/gm/lit, 10th day.
[25] abbreviates: read-out: % Corrected Mortality at 48 Hrs.
Setting [26] is: read-out: % Mortality at 48 Hrs.
The mark [27] stands for this setting: Table 13, descriptive, no test described.

As to `CN(C(=O)c1ccccc1)c1cccc(C(=O)Nc2c(Br)cc(C(F)(C(F)(F)F)C(F)(F)F)cc2C(F)(F)F)c1F` [Brofranilide], in the series on Tomato thrips (Dose 0.17 ml/lit), the “% Corrected Mortality at 72 hrs.” value was determined as 47.37%, the “% Mortality at 72 hrs.” value is recorded as 50.0% and the “Total no of dead insects at 72 hrs.” value stood at 20.0.

Consider `O=[N+]([O-])C(Br)(CO)CO` [Bromopol], for which, in series [1] (cotton), the “% Increase in yield over control” value was found to be 7.93% and the Yield came to 24.96 qtl/ha. For the same compound, in series [1], the “% Disease Infection after 1st spray” value is on record as 30.65%, the “% Disease Infection after 2nd spray” value was 12.86%, the “% Disease Reduction Over Control after 1st spray” value came to 47.43% and the “% Disease Reduction Over Control after 2nd spray” value was found to be 81.68%. In series [2], the “% Disease Infection after 1st spray” value was determined as 22.18%, the “% Disease Infection after 2nd spray” value was 19.63%, the “% Disease Reduction Over Control after 1st spray” value is listed as 61.71% and the “% Disease Reduction Over Control after 2nd spray” value was found to be 74.02%. Also, in series [2] (rice), the “% Increase in yield over control” value was 8.31% and the Yield was 4.09 t/ha. Besides, in series [3], the “% Disease Infection after 1st spray” value came out at 24.49%, the “% Disease Infection after 2nd spray” value came to 21.79%, the “% Disease Reduction Over Control after 1st spray” value worked out at 53.59% and the “% Disease Reduction Over Control after 2nd spray” value is listed as 71.13%. Moreover, in [3] (potato), the “% Increase in yield over control” value is listed as 7.64% and the Yield was 22.24 t/ha.

As to `C=C(C)[C@H]1CC=C(C)CC1` [D-limonene], the “% Corrected Mortality at 48 Hrs.” value with Mealy Bug [4] was 38.89%; in the series with Aphid [5] (Dose 1 ml/gm/lit., 48 hrs) it was 57.14%; in the series on Mite [12], 50.00%; with Mite [17], 45.95%; with Mealy Bug [19], 39.47%; with Thrips [22], 30.56%. Also, the “% Mortality at 48 Hrs.” value worked out at 45.00% in the series on Mealy Bug [4], 52.50% in the series on Mite [7], 50.00% with Mite [17] and 42.50% in the series on Mealy Bug [19]. Further, the “Total No. of dead insect at 48 Hrs.” value in the series on Aphid [5] (48 h) was determined as 6.25; in the series with Aphid [8] it was 62.50; in the series with Thrips [10], 3.75; in the series on Thrips [13], 37.50. Also, the “% Corrected Mortality at 72 Hrs.” value with Spodoptera litura [6] is reported as 23.68%; in the series with Helicoverpa armigera [9] (corrected for water control), 32.50%; in the series on Helicoverpa armigera [14] (72 hrs, corrected for water control) it was 32.50%. The “CCI Pre” value was 11.59 in the series on tomato seedlings and 10.30 in the series on chili seedlings. Also, the “Plant Height Pre” value in the series with tomato seedlings is recorded as 5.52 cm. Besides, the “Stem Girth Pre” value in the series on tomato seedlings was found to be 1.30 mm. Besides, the “CCI 5th Day” value in the series with tomato seedlings (120 h) stood at 13.66; in the series on chili seedlings (120 h), 13.60. Also, the “Plant Height 5th Day” value in the series on tomato seedlings (120 h) is 6.44 cm. In addition, the “Stem Girth 5th Day” value with tomato seedlings (120 h) turned out to be 1.98 mm. The “CCI 10th Day” value in the series with tomato seedlings (240 h) amounted to 15.54; with chili seedlings (240 h), 17.4. The “Plant Height 10th Day” value with tomato seedlings (240 h) is on record as 7.56 cm. Further, in the series with tomato seedlings (240 h), the “Root Length % Increase over control” value is 25.57%. In the series with tomato seedlings (240 h), the “Stem Girth 10th Day” value is 2.21 mm. For the same compound, the “Plant Height % Increase over pre on 10th Day” value in the series on tomato seedlings (setting [23]) is given as 36.96%; in the series on chili seedlings (setting [24]), 68.16%. Further, the “Stem Girth % Increase over pre on 10th Day” value in the series on tomato seedlings (setting [23]) was determined as 69.48%; with chili seedlings (setting [24]) it was 60.00%. The “CCI % Increase over pre on 10th Day” value was 34.08% with tomato seedlings (tomato seedlings, dose 1 ml/gm/lit, 10th day) and 68.93% in the series with chili seedlings (setting [24]). Besides, the “% Mortality at 72 Hrs.” value in the series with Helicoverpa armigera [9] stood at 32.50%; with Helicoverpa armigera [14] (72 hrs after application), 32.50%; with Spodoptera litura [21], 27.50%. In the series with Alternaria alternata, the inhibition of growth at 1 mL or g/L was 46.6%. In the series on Spodoptera litura [11], the “Total No. of dead insect at 72 Hrs.” value came out at 2.50. Besides, the “Plant Height (cm) Pre” value in the series on chili seedlings is listed as 4.90 cm. The “Plant Height (cm) 5th Day” value in the series on chili seedlings (120 h) turned out to be 6.97 cm. Further, in the series with chili seedlings (240 h), the “Plant Height (cm) 10th Day” value was 8.24 cm. Also, the “Root Lenght % Increase over control” value in the series with chili seedlings (240 h) stood at 61.51%. Besides, the “Root Lenght (cm) 10th Day” value with chili seedlings (setting [24]) stood at 4.42 cm. Also, the mortality at 1 mL or g/L in the series with Thrips [15] (setting [25]) is 28.6%; in the series on Thrips [15] (setting [26]), 37.5%; in the series on Spodoptera litura [16] (read-out: % Corrected Mortality at 72 Hrs.) it was 21.1%; in the series with Spodoptera litura [16] (read-out: % Mortality at 72 Hrs.) it was 25%; in the series with Aphid [18] (setting [25]), 55.9%; in the series with Aphid [18] (setting [26]) it was 62.5%. In addition, the “Acaricidal Activity - Mode of action” value in series [20] (setting [27]) is “Ovicidal, repellent activity”. The “Antioxidant Activity - Mode of action” value in series [20] (setting [27]) is “Possesses antioxidant”. Also, in [20] (setting [27]), the “Virucidal Activity - Mode of action” value was “Exhibits viricidal activities”. For the same compound, in [20] (Table 13, effect on plants, descriptive), the “Phytotonic Effect” value is “Exhibits plant”.

As for `CON=CNC(=O)c1ccc(C2=NOC(c3cc(Cl)cc(Cl)c3)(C(F)(F)F)C2)cc1C` (centres unmarked) [Fluxametamide], in the series with Tomato thrips (Dose 0.8 ml/lit), the “% Corrected Mortality at 72 hrs.” value stood at 57.89%, the “% Mortality at 72 hrs.” value turned out to be 60.0% and the “Total no of dead insects at 72 hrs.” value amounted to 24.0.
